# Experimental data reported in patent US9139532B2, “Pyrazolyl guanidine F1F0-atpase inhibitors and therapeutic uses thereof” (Lycera Corporation, priority 2010, dated 2015).
# Read-outs that look alike come from different tables or passages of the source.
# Assays:
# [1] = biological target: T1, F1F0-ATPase (Bos taurus, UniProt P13621); experiment: Inhibition of F1F0-ATPase activity in synthesizing ATP; type: biochemical; conditions: inhibition of ATP synthesis by F1F0-ATPase; read-out: ATP Syn IC50
# T1 construct: from tissue
# [2] = system: Ramos cells; experiment: Cytotoxicity in Ramos cells; type: cell-based; conditions: cytotoxicity in Ramos cells, read-out: Ramos Cell EC50
IC50 [1] [µM],SMILES,EC50 [2] [µM],EC50 ([2]; Homo sapiens) [µM]
< 10,O=C(/N=C(/NCc1ccc(F)cc1Cl)Nc1cc(-c2ccc(Cl)cc2)n[nH]1)c1ccc(C(F)(F)F)cc1 [Compound A-445],< 10,–
< 10,O=C(N=C(Nc1cc(F)cc(Cl)c1)Nc1cc(-c2cccc(Cl)c2)[nH]n1)c1ccc(C(F)(F)F)cc1 [Compound A-446],–,> 10
< 10,O=C(/N=C(/Nc1cc(F)cc(Cl)c1)Nc1cc(-c2ccc(Cl)cc2)n[nH]1)c1ccc(C(F)(F)F)cc1 [Compound A-447],> 10,–
< 10,CC(C)(C)N/C(=N/C(=O)c1cccc(Cl)c1)Nc1cc(-c2ccc(F)cc2)n[nH]1 [Compound A-451],< 10,–
< 10,O=C(N=C(NCc1ccc(F)cc1Cl)Nc1cc(-c2ccc(F)cc2)n[nH]1)c1cccc(Cl)c1 [Compound A-452],–,< 10
< 10,CC(C)(C)N/C(=N/C(=O)c1ccc(Cl)cc1)Nc1cc(-c2ccc(F)cc2)n[nH]1 [Compound A-453],< 10,–
< 10,O=C(/N=C(/NCc1ccc(F)cc1Cl)Nc1cc(-c2ccc(F)cc2)n[nH]1)c1ccc(Cl)cc1 [Compound A-454],< 10,–
< 10,O=C(/N=C(/Nc1cc(F)cc(Cl)c1)Nc1cc(-c2ccc(F)cc2)n[nH]1)c1ccc(Cl)cc1 [Compound A-455],< 10,–
< 10,O=C(/N=C(/Nc1cc(F)cc(Cl)c1)Nc1cc(-c2ccc(F)cc2)n[nH]1)c1cccc(F)c1 [Compound A-458],< 10,–
> 10,O=C(N=C(Nc1cc(-c2ccccc2)[nH]n1)NC1CCOCC1)c1ccc(C(F)(F)F)cc1 [Compound A-466],–,> 10
< 10,Cc1ccc(-c2cc(NC(=NC(=O)c3ccc(Cl)c(F)c3)NC(C)(C)C)[nH]n2)cc1 [Compound A-470],–,> 10
< 10,COc1ccc(-c2cc(N/C(=N\C(=O)c3ccc(Cl)c(F)c3)NCc3ccc(F)cc3Cl)[nH]n2)cc1 [Compound A-471],> 10,–
< 10,O=C(/N=C(/NCc1ccc(F)cc1Cl)Nc1cc(-c2cccc(Cl)c2)n[nH]1)c1ccc(Cl)c(F)c1 [Compound A-472],> 10,–
< 10,Cc1ccc(-c2cc(NC(=NC(=O)c3ccc(Cl)c(F)c3)NCc3ccc(F)cc3Cl)[nH]n2)cc1 [Compound A-474],–,> 10
< 10,Cc1ccc(-c2cc(N/C(=N\C(=O)c3ccc(F)c(F)c3)NCc3ccc(F)cc3Cl)[nH]n2)cc1 [Compound A-479],< 10,–
< 10,COc1ccc(-c2cc(N/C(=N\C(=O)c3ccc(F)c(F)c3)Nc3cc(F)cc(Cl)c3)[nH]n2)cc1 [Compound A-480],> 10,–
< 10,COc1ccc(-c2cc(N/C(=N\C(=O)c3ccc(C(F)(F)F)cc3)Nc3cc(F)cc(Cl)c3)[nH]n2)cc1 [Compound A-481],> 10,–
< 10,COCC(C)NC(=NC(=O)c1ccnc(N2CCCC2)c1)Nc1cc(-c2ccc(F)cc2)[nH]n1 (stereo not shown) [Compound A-484],–,< 10
< 10,CC(C)(C)NC(=NC(=O)c1ccnc(N)c1)Nc1cc(-c2ccc(F)cc2)[nH]n1 [Compound A-486],–,< 10
< 10,CC(C)(C)N/C(=N/C(=O)c1ccnc(N2CCCC2)c1)Nc1cc(-c2ccc(F)cc2)n[nH]1 [Compound A-487],< 10,–
< 10,CC(C)(C)N/C(=N/C(=O)c1ccc(F)cc1F)Nc1cc(-c2ccc(F)cc2)n[nH]1 [Compound A-489],< 10,–
< 10,CC(CC#N)NC(=NC(=O)c1ccc(F)cc1)Nc1cc(-c2ccc(F)cc2)n[nH]1 (stereo not shown) [Compound A-490],–,< 10
< 10,COC[C@H](C)NC(=NC(=O)c1cccc(S(C)(=O)=O)c1)Nc1cc(-c2ccc(F)cc2)n[nH]1 [Compound A-491],–,> 10
< 10,COC[C@H](C)N/C(=N/C(=O)c1ccc(OC)nc1)Nc1cc(-c2ccc(F)cc2)n[nH]1 [Compound A-493],< 10,–
< 10,COC[C@H](C)N/C(=N/C(=O)c1ccnc(OC)c1)Nc1cc(-c2ccc(F)cc2)n[nH]1 [Compound A-495],< 10,–
< 10,COc1cc(C(=O)/N=C(\Nc2cc(-c3ccc(F)cc3)n[nH]2)NC(C)(C)C)ccn1 [Compound A-496],< 10,–
< 10,CC(C)(C)N/C(=N/C(=O)c1cccc(S(C)(=O)=O)c1)Nc1cc(-c2ccc(F)cc2)n[nH]1 [Compound A-499],< 10,–
< 10,COC[C@@H](C)NC(=NC(=O)c1ccc(F)cc1)Nc1cc(-c2ccc(F)cc2)n[nH]1 [Compound A-500],–,< 10
< 10,O=C(/N=C(\Nc1cc(-c2ccc(F)cc2)n[nH]1)NC1CCC(F)(F)CC1)c1ccc(F)cc1 [Compound A-501],< 10,–

# The next lines start with the compound.
SMILES,IC50 [1] [µM],EC50 [2] [µM],EC50 ([2]; Homo sapiens) [µM]
O=C(/N=C(/NCc1ccc(F)cc1Cl)Nc1cc(-c2ccc(F)cc2)n[nH]1)c1ccc(C(F)(F)F)cc1 [Compound A-443],< 10,< 10,–
O=C(/N=C(/NCc1ccc(F)cc1Cl)Nc1cc(-c2cccc(Cl)c2)n[nH]1)c1ccc(C(F)(F)F)cc1 [Compound A-444],< 10,> 10,–
CC(C)(C)NC(=NC(=O)c1cccc(C(F)(F)F)c1)Nc1cc(-c2ccc(F)cc2)n[nH]1 [Compound A-448],< 10,–,< 10
O=C(/N=C(/NCc1ccc(F)cc1Cl)Nc1cc(-c2ccc(F)cc2)n[nH]1)c1cccc(C(F)(F)F)c1 [Compound A-449],< 10,< 10,–
O=C(N=C(Nc1cc(F)cc(Cl)c1)Nc1cc(-c2ccc(F)cc2)n[nH]1)c1cccc(C(F)(F)F)c1 [Compound A-450],< 10,–,< 10
CC(C)(C)N/C(=N/C(=O)c1cccc(F)c1)Nc1cc(-c2ccc(F)cc2)n[nH]1 [Compound A-456],< 10,< 10,–
O=C(/N=C(/NCc1ccc(F)cc1Cl)Nc1cc(-c2ccc(F)cc2)n[nH]1)c1cccc(F)c1 [Compound A-457],< 10,< 10,–
CC(C)(C)N/C(=N/C(=O)c1ccc(F)cc1)Nc1cc(-c2ccc(F)cc2)n[nH]1 [Compound A-459],< 10,< 10,–
O=C(N=C(NCc1ccc(F)cc1Cl)Nc1cc(-c2ccc(F)cc2)n[nH]1)c1ccc(F)cc1 [Compound A-460],< 10,–,< 10
O=C(N=C(Nc1cc(F)cc(Cl)c1)Nc1cc(-c2ccc(F)cc2)n[nH]1)c1ccc(F)cc1 [Compound A-461],< 10,–,< 10
COc1ccc(-c2cc(NC(=NC(=O)c3ccc(Cl)c(F)c3)NC3CCOCC3)n[nH]2)cc1 [Compound A-462],> 10,–,> 10
O=C(/N=C(\Nc1cc(-c2cccc(Cl)c2)n[nH]1)NC1CCOCC1)c1ccc(Cl)c(F)c1 [Compound A-463],< 10,> 10,–
O=C(/N=C(\Nc1cc(-c2ccc(Cl)cc2)n[nH]1)NC1CCOCC1)c1ccc(Cl)c(F)c1 [Compound A-464],> 10,> 10,–
O=C(N=C(Nc1cc(-c2ccc(F)cc2)n[nH]1)NC1CCOCC1)c1ccc(C(F)(F)F)cc1 [Compound A-465],> 10,–,> 10
COc1ccc(-c2cc(N/C(=N\C(=O)c3ccc(Cl)c(F)c3)NC(C)(C)C)[nH]n2)cc1 [Compound A-467],< 10,< 10,–
CC(C)(C)NC(=NC(=O)c1ccc(Cl)c(F)c1)Nc1cc(-c2cccc(Cl)c2)[nH]n1 [Compound A-468],< 10,–,< 10
CC(C)(C)NC(=NC(=O)c1ccc(Cl)c(F)c1)Nc1cc(-c2ccc(Cl)cc2)n[nH]1 [Compound A-469],< 10,–,< 10
O=C(N=C(NCc1ccc(F)cc1Cl)Nc1cc(-c2ccc(Cl)cc2)n[nH]1)c1ccc(Cl)c(F)c1 [Compound A-473],< 10,–,> 10
O=C(N=C(Nc1cc(F)cc(Cl)c1)Nc1cc(-c2cccc(Cl)c2)[nH]n1)c1ccc(Cl)c(F)c1 [Compound A-475],< 10,–,> 10
COc1ccc(-c2cc(N/C(=N\C(=O)c3ccc(F)c(F)c3)NCc3ccc(F)cc3Cl)[nH]n2)cc1 [Compound A-476],< 10,> 10,–
O=C(/N=C(/NCc1ccc(F)cc1Cl)Nc1cc(-c2cccc(Cl)c2)n[nH]1)c1ccc(F)c(F)c1 [Compound A-477],< 10,> 10,–
O=C(/N=C(/NCc1ccc(F)cc1Cl)Nc1cc(-c2ccc(Cl)cc2)n[nH]1)c1ccc(F)c(F)c1 [Compound A-478],< 10,< 10,–
O=C(/N=C(/Nc1cc(F)cc(Cl)c1)Nc1cc(-c2ccccc2)n[nH]1)c1ccc(Cl)c(F)c1 [Compound A-482],< 10,< 10,–
O=C(/N=C(/NCc1ccc(F)cc1Cl)Nc1cc(-c2ccccc2)n[nH]1)c1ccc(F)c(F)c1 [Compound A-483],< 10,> 10,–
CC(=O)Nc1cc(C(=O)N=C(Nc2cc(-c3ccc(F)cc3)[nH]n2)NC(C)(C)C)ccn1 [Compound A-485],> 10,–,> 10
COC[C@H](C)N/C(=N/C(=O)c1ccc(F)cc1F)Nc1cc(-c2ccc(F)cc2)n[nH]1 [Compound A-488],< 10,< 10,–
COC[C@H](C)N/C(=N/C(=O)c1ccc(O)cc1)Nc1cc(-c2ccc(F)cc2)n[nH]1 [Compound A-492],< 10,< 10,–
COc1ccc(C(=O)/N=C(\Nc2cc(-c3ccc(F)cc3)n[nH]2)NC(C)(C)C)cn1 [Compound A-494],< 10,< 10,–
COCC(C)NC(=NC(=O)c1ccc(S(C)(=O)=O)cc1)Nc1cc(-c2ccc(F)cc2)n[nH]1 (stereo not shown) [Compound A-497],< 10,–,< 10
CC(C)(C)N/C(=N/C(=O)c1ccc(S(C)(=O)=O)cc1)Nc1cc(-c2ccc(F)cc2)n[nH]1 [Compound A-498],< 10,< 10,–
